Patent US10301272B2, “Carboxamide or sulfonamide substituted thiazoles and related derivatives as modulators for the orphan nuclear receptor ROR[γ]” (Phenex Pharmaceuticals AG, priority 2012, dated 2019)
Like-named read-outs stand apart in the source and are kept apart here.

How the values were obtained:
[1] = molecular target: RORγ ligand binding domain (LBD) (Homo sapiens (Human), UniProt P51449); experiment: TR-FRET Activity Assay (ligand sensing assay, LANCE); details: for pIC50 (FRET): TR-FRET, interaction of RORγ-LBD with coactivator peptide
RORγ = RORγ (Homo sapiens, UniProt P51449); experiment: RORγ Gal4 Reporter Gene Assay; type: cell-based
Method in brief: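 Cells at 5×10^5/well were transfected with RORγ fragments fused to the GAL4 DNA-binding domain (CMV promoter), a 5×GAL4-site firefly luciferase reporter and CMV-Renilla luciferase for normalization. About 4 h later serum-free MEM and compound were added (vehicle ≤0.1%). Cultures at 37 °C, 5% CO2; at least triplicates.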

[2] = firefly (FF) luciferase, 293T cells, read-out: pIC50 (FF) (converted)
[3] = renilla normalised (RENnorm) luciferase, 293T cells, read-out: pIC50 (REN) (converted)

Chain of RORγ ligand binding domain (LBD) (P51449 269-508): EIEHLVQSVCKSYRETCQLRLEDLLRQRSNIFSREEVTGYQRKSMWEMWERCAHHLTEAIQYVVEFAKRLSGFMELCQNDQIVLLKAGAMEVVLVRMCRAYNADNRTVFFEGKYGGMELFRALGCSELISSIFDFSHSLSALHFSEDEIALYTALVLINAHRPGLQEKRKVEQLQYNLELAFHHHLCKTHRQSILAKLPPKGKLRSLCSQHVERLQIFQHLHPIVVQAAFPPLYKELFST
Chain of RORγ (P51449 whole entry, looked up, the tested form may be a part): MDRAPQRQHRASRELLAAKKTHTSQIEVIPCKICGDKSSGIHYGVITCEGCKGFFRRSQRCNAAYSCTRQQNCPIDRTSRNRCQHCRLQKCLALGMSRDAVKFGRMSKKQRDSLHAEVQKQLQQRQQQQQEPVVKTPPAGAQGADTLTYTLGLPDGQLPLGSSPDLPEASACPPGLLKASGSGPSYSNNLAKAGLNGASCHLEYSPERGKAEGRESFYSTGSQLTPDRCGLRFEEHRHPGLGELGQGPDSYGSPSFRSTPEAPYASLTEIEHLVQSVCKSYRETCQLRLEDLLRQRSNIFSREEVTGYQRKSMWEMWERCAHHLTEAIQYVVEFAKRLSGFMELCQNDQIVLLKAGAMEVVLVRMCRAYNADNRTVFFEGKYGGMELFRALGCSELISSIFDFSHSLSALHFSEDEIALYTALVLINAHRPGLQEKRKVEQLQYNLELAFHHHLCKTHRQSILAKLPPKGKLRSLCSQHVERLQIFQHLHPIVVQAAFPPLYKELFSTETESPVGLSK

Row | Structure (SMILES) | pIC50 (FRET) [1] | pIC50 (FF) (RORγ) | pIC50 (REN) (RORγ) | pIC50 (FF) (RORγ; firefly (FF) luciferase, 293T cells) | pIC50 (REN) (RORγ; renilla normalised (RENnorm) luciferase, 293T cells) | IC50 [1] [nM] | IC50 (RORγ; [2]) [nM] | IC50 (RORγ; [3]) [nM]
1 | CC(C)(C)NS(=O)(=O)c1ccc(-c2nc(C(=O)NC3CCS(=O)(=O)CC3)oc2CC2CCCCC2)c2ccccc12 [Example 103, 4-(4-(N-(tert-Butyl)sulfamoyl)naphthalen-1-yl)-5-(cyclohexylmethyl)-N-(1,1-dioxidotetrahydro-2H-thiopyran-4-yl)oxazole-2-carboxamide] | 6.3/7.2/7.3 | 6.3/7.2/7.3 | 6.3/7.2/7.3 | – | – | – | – | –
2 | CC(C)(C)NS(=O)(=O)c1ccc(-c2sc(C(=O)NC3CCS(=O)(=O)CC3)nc2Cc2ccccc2)c2ccccc12 [Example 300, 4-Benzyl-5-(4-(N-(tert-butyl)sulfamoyl)naphthalen-1-yl)-N-(1,1-dioxidotetrahydro-2H-thiopyran-4-yl)thiazole-2-carboxamide] | 7.1/8.2/8.4 | 7.1/8.2/8.4 | 7.1/8.2/8.4 | – | – | – | – | –
3 | CC(C)(C)NS(=O)(=O)c1ccc(-c2sc(C(=O)NCCC(C)(C)C(=O)O)nc2CC2CCCCC2)c(Cl)c1Cl [6/39] | 6.4/8.2/8.2 | 6.4/8.2/8.2 | 6.4/8.2/8.2 | – | – | – | – | –
4 | CC(C)(C)NS(=O)(=O)c1ccc(-c2sc(C(=O)NC3C[S+]([O-])C3)nc2CC2CCCCC2)c(Cl)c1Cl (stereo not drawn) [15/5] | 6.9/8.5/8.4 | 6.9/8.5/8.4 | 6.9/8.5/8.4 | – | – | – | – | –
5 | O=C(c1nc(CC2CCCCC2)c(-c2ccc(S(=O)(=O)N3CCOCC3)c3ccccc23)s1)N1CC2(CCS(=O)(=O)CC2)C1 [14/4] | 6.2/6.4/6.3 | 6.2/6.4/6.3 | 6.2/6.4/6.3 | – | – | – | – | –
6 | CC(C)(C)c1cc(-c2nc(S(N)(=O)=O)sc2CC2CCCCC2)cc(C(C)(C)C)c1 [Example 2, 5-(Cyclohexylmethyl)-4-(3,5-di-tert-butylphenyl)thiazole-2-sulfonamide] | 5.9/6.1/6.0 | 5.9/6.1/6.0 | 5.9/6.1/6.0 | – | – | – | – | –
7 | CC(C)(C)NS(=O)(=O)c1ccc(-c2sc(C(=O)NCCC(C)(C)C(=O)O)nc2CC2CCCCC2)cc1C(C)(C)C [Example 7/1] | 6.1/6.8/6.9 | 6.1/6.8/6.9 | 6.1/6.8/6.9 | – | – | – | – | –
8 | CC(C)(C)NS(=O)(=O)c1ccc(-c2oc(C(=O)NC34CCC(C(=O)NS(C)(=O)=O)(CC3)CC4)nc2CC2CCCCC2)c2ccccc12 [Example 102, 5-(4-(N-(tert-Butyl)sulfamoyl)naphthalen-1-yl)-4-(cyclohexylmethyl)-N-(4-((methylsulfonyl)carbamoyl)bicyclo[2.2.2]octan-1-yl)oxazole-2-carboxamide] | 6.0/7.3/7.4 | 6.0/7.3/7.4 | 6.0/7.3/7.4 | – | – | – | – | –
9 | CC(C)(C)NS(=O)(=O)c1ccc(-c2oc(C(=O)NC3CCS(=O)(=O)CC3)nc2CC2CCCCC2)c2ccccc12 [100/6] | 6.4/8.5/8.4 | 6.4/8.5/8.4 | 6.4/8.5/8.4 | – | – | – | – | –
10 | CC(C)(C)NS(=O)(=O)c1ccc(-c2oc(C(=O)N3CC4(CCOCC4)C3)nc2CC2CCCCC2)c2ccccc12 [100/10] | 6.4/7.2/7.4 | 6.4/7.2/7.4 | 6.4/7.2/7.4 | – | – | – | – | –
11 | CC(O)c1c(S(=O)(=O)NC(C)(C)C)ccc(-c2sc(C(=O)N3CC4(CCS(=O)(=O)CC4)C3)nc2CC2CCCCC2)c1Cl (stereo not drawn) [21/10] | 5.9/6.7/6.7 | 5.9/6.7/6.7 | 5.9/6.7/6.7 | – | – | – | – | –
12 | CCS(=O)(=O)c1ccc(CC(=O)Nc2nc(-c3ccccc3)c(Cc3ccccc3)s2)cc1 [Example 211, N-(5-Benzyl-4-phenylthiazol-2-yl)-2-(4-(ethylsulfonyl)phenyl)acetamide] | 5.8 | – | – | 6.3 | 6.4 | – | – | –
13 | CC(C)(C)NS(=O)(=O)c1ccc(-c2sc(C(=O)NC3CCOCC3)nc2CC2CCCCC2)cc1C(C)(C)O [6/22] | 6.8/7.7/7.7 | 6.8/7.7/7.7 | 6.8/7.7/7.7 | – | – | – | – | –
14 | CC(C)(O)CNC(=O)c1nc(CC2CCCCC2)c(-c2ccc(S(=O)(=O)NC(C)(C)C)c3ccccc23)o1 [100/7] | 6.6/7.7/7.9 | 6.6/7.7/7.9 | 6.6/7.7/7.9 | – | – | – | – | –
15 | CN1CCN(C(=O)c2nc(CC3CCCCC3)c(-c3ccc(S(=O)(=O)NC(C)(C)C)c4ccccc34)s2)CC1 [6/53] | 6.6/7.1/7.4 | 6.6/7.1/7.4 | 6.6/7.1/7.4 | – | – | – | – | –
16 | CC(C)(O)CNC(=O)c1ncc(CC2CCCCC2)c(-c2cc(C(C)(C)C)cc(C(C)(C)C)c2)n1 [Example 207/1] | 6.0/6.2/6.1 | 6.0/6.2/6.1 | 6.0/6.2/6.1 | – | – | – | – | –
17 | CCCc1nc(C(=O)N[C@H]2C[C@H](C(=O)O)C2)sc1-c1ccc(S(=O)(=O)NC(C)(C)C)c(Cl)c1Cl [300/6] | – | – | – | – | – | 200 | 126 | 158
18 | CC(C)(C)NS(=O)(=O)c1ccc(-c2sc(C(=O)NC3CSC3)nc2CC2CCCCC2)cc1C(C)(C)O [6/24] | 7.3/7.9/8.0 | 7.3/7.9/8.0 | 7.3/7.9/8.0 | – | – | – | – | –

Row | Structure (SMILES) | pIC50 (FRET) [1] | pIC50 (FF) (RORγ) | pIC50 (REN) (RORγ) | pIC50 (FF) (RORγ; firefly (FF) luciferase, 293T cells) | pIC50 (REN) (RORγ; renilla normalised (RENnorm) luciferase, 293T cells) | IC50 [1] [nM] | IC50 (RORγ; [2]) [nM] | IC50 (RORγ; [3]) [nM]
19 | NS(=O)(=O)c1c(Cl)cc(-c2sc(C(=O)NC3CCOCC3)nc2CC2CCCCC2)cc1C(F)(F)F [Example 17/1] | 5.6/6.1/6.5 | 5.6/6.1/6.5 | 5.6/6.1/6.5 | – | – | – | – | –
20 | CC(C)(C)c1cc(-c2nc(C(N)=O)ncc2CC2CCCCC2)cc(C(C)(C)C)c1 [Example 206, 5-(Cyclohexylmethyl)-4-(3,5-di-tert-butylphenyl)pyrimidine-2-carboxamide] | 5.9/6.3/6.2 | 5.9/6.3/6.2 | 5.9/6.3/6.2 | – | – | – | – | –
21 | CC(C)(O)CNC(=O)c1nc(CC2CCCCC2)c(-c2ccc(S(N)(=O)=O)c(Cl)c2Cl)s1 [Example 17, 4-(Cyclohexylmethyl)-5-(2,3-dichloro-4-sulfamoylphenyl)-N-(2-hydroxy-2-methylpropyl)thiazole-2-carboxamide] | 5.0 | – | – | – | – | – | > 20000 | > 20000
22 | CC(C)(C)NS(=O)(=O)c1ccc(-c2sc(C(=O)NC3CCS(=O)(=O)CC3)nc2-c2ccccc2)c2ccccc12 [Example 300/1] | 7.2/7.8/7.9 | 7.2/7.8/7.9 | 7.2/7.8/7.9 | – | – | – | – | –
23 | CC(C)(C)NS(=O)(=O)c1ccc(-c2sc(C(=O)N[C@H]3C[C@@H](S(C)(=O)=O)C3)nc2CC2CCCCC2)c(Cl)c1Cl [6/42] | 7.2/8.2/8.4 | 7.2/8.2/8.4 | 7.2/8.2/8.4 | – | – | – | – | –
24 | CC(C)(C)NS(=O)(=O)c1ccc(-c2sc(C(=O)N3CC4(COC4)C3)nc2CC2CCCCC2)c(Cl)c1Cl [6/33] | 6.6/7.9/8.0 | 6.6/7.9/8.0 | 6.6/7.9/8.0 | – | – | – | – | –
25 | CC(C)(C)c1cc(-c2sc(C(=O)NCC3(C(N)=O)CCOCC3)nc2CC2CCCCC2)cc(C2(C)CC2)c1 [6/2] | 7.0/7.5/7.7 | 7.0/7.5/7.7 | 7.0/7.5/7.7 | – | – | – | – | –
26 | CC(C)(O)CNC(=O)c1nc(CC2CCCCC2)c(-c2ccc(S(=O)(=O)NC(C)(C)C)c3c(F)cccc23)s1 [19/8] | 7.0/7.7/7.8 | 7.0/7.7/7.8 | 7.0/7.7/7.8 | – | – | – | – | –
27 | CN(C(=O)c1nc(CC2CCCCC2)c(-c2ccc(S(=O)(=O)NC(C)(C)C)c3ccccc23)o1)C1CCOCC1 [100/4] | 6.6/7.1/7.3 | 6.6/7.1/7.3 | 6.6/7.1/7.3 | – | – | – | – | –
28 | CC(C)(C)c1cc(-c2sc(S(=O)(=O)NC(=O)OCc3ccccc3)nc2CC2CCCCC2)cc(C2(C)CC2)c1 [Example 12, Benzyl (5-(3-(tert-butyl)-5-(1-methylcyclopropyl)phenyl)-4-(cyclohexylmethyl)thiazol-2-yl)sulfonylcarbamate] | 5.5 | – | – | – | – | – | > 20000 | > 20000
29 | CCNS(=O)(=O)c1ccc(-c2sc(C(=O)NCC(C)(C)O)nc2CC2CCCCC2)c(Cl)c1Cl [Example 18, 4-(Cyclohexylmethyl)-5-(2,3-dichloro-4-(N-ethylsulfamoyl)phenyl)-N-(2-hydroxy-2-methylpropyl)thiazole-2-carboxamide] | 6.9/8.1/8.0 | 6.9/8.1/8.0 | 6.9/8.1/8.0 | – | – | – | – | –
30 | CC(C)(C)c1cc(-c2sc(C(=O)N[C@H]3C[C@H](C(=O)O)C3)nc2CC2CCCCC2)cc(C(C)(C)C)n1 [8/8] | – | – | – | – | – | 501 | 63.1 | 79.4
31 | CC(C)(C)c1cc(-c2oc(C(N)=O)nc2CC2CCCCC2)cc(C(C)(C)C)c1 [Example 100, 4-(Cyclohexylmethyl)-5-(3,5-di-tert-butylphenyl)oxazole-2-carboxamide] | 6.6/5.8/5.8 | 6.6/5.8/5.8 | 6.6/5.8/5.8 | – | – | – | – | –
32 | CC1(c2cc(Cl)cc(-c3sc(C(=O)N[C@H]4C[C@H](C(=O)O)C4)nc3CC3CCCCC3)c2)CC1 [9/9] | 5.4/6.9/7.0 | 5.4/6.9/7.0 | 5.4/6.9/7.0 | – | – | – | – | –
33 | CC(C)(O)CNC(=O)c1nc(CC2CCCCC2)c(-c2ccc(S(=O)(=O)NC3(C)COC3)c3ccccc23)s1 [8/5] | 6.4/8.5/8.7 | 6.4/8.5/8.7 | 6.4/8.5/8.7 | – | – | – | – | –
34 | CC(C)(C)NS(=O)(=O)c1ccc(-c2sc(C(=O)NC3CCS(=O)(=O)CC3)nc2C2CCCCC2)c2ccccc12 [300/2] | 6.9/8.2/8.2 | 6.9/8.2/8.2 | 6.9/8.2/8.2 | – | – | – | – | –
35 | CC(C)(C)c1cc(-c2nc(C(N)=O)oc2CC2CCCCC2)cc(C(C)(C)C)c1 [Example 101, 5-(Cyclohexylmethyl)-4-(3,5-di-tert-butylphenyl)oxazole-2-carboxamide] | 6.0 | – | – | – | – | – | > 20000 | > 20000
